Like-named read-outs stand apart in the source and are kept apart here.
Legend:
[1] = tested on: direct contact coculture; assay: MTT cell viability assay; type: cell-based, human; conditions: n=6
Experimental: Cell viability in the presence of various HEPES concentrations was inferred by the mitochondrial oxidation of 3-(4,5-dimethylthiazol-2-yl)-2,5-diphenyltetrazolium bromide (MTT) dye. The direct contact coculture was plated in a 96-well plate following the same methods as stated above. On Day 7 post hCMEC/D3 plating, media containing HEPES was removed and replaced with 190 μL, fresh media and 10 μL of 5 mg/mL MTT and incubated at 37° C. with 5% CO2 for 4 hours. MTT was then removed and replaced with 200 μL DMSO and left agitating at room temperature for 1 hour. Absorbance at 570 nm was determined using a plate reader. Cell viability was normalized to 10 mM HEPES control. Assays were performed with n=6.

[2] = tested on: co-culture of astrocytes and pericytes; assay: Mannitol permeability across mono- or co-cultures of astrocytes and pericytes; type: in vitro ADME
[3] = tested on: direct-contact triculture of astrocytes, pericytes and hCMEC/D3 cells
[4] = in vitro; conditions: human
[5] = in vitro; conditions: human; remark: listed apart in the source
Experimental: (§1) For human astrocyte monocultures, 4×10^4 cells were seeded onto Transwells® coated with 2 μg/cm^2 poly-L-lysine and grown for 9 days prior to permeability studies.
(§2) Before all permeability studies, cells were washed twice with PBS before equilibrating in HBSS for 20 minutes shortly before the study. After study initiation, 100 μL samples were taken at 15, 30, 45, 60, and 90 minute time points. 4 mL of scintillation cocktail was added for analysis by scintillation counting.

[6] = Apparent permeability across human astrocyte monoculture; type: in vitro ADME; conditions: human; astrocytes grown in monoculture
Experimental: as §1
as §2, with “. Before” for “Before”

[7] = tested on: human astrocyte monolayers; assay: as above; type: in vitro ADME
Experimental: as §1
as §2, with “. Before” for “Before”

[8] = tested on: hCMEC/D3 monoculture; assay: in vitro
Experimental: as §1, §2

[9] = tested on: direct contact coculture of human astrocytes and hCMEC/D3 cells
[10] = molecular target: T1, Pgp (Homo sapiens, UniProt P08183); assay: Drug-interaction of elacridar and digoxin in BBB culture models; type: cell-based; conditions: triculture versus hCMEC/D3 monoculture or astrocyte-pericyte co-culture, FIG. 17
T1 construct: endogenous in cells; host or cells: hCMEC/D3 monoculture, astrocyte-pericyte coculture and triculture
T1 sequence (P08183 whole entry): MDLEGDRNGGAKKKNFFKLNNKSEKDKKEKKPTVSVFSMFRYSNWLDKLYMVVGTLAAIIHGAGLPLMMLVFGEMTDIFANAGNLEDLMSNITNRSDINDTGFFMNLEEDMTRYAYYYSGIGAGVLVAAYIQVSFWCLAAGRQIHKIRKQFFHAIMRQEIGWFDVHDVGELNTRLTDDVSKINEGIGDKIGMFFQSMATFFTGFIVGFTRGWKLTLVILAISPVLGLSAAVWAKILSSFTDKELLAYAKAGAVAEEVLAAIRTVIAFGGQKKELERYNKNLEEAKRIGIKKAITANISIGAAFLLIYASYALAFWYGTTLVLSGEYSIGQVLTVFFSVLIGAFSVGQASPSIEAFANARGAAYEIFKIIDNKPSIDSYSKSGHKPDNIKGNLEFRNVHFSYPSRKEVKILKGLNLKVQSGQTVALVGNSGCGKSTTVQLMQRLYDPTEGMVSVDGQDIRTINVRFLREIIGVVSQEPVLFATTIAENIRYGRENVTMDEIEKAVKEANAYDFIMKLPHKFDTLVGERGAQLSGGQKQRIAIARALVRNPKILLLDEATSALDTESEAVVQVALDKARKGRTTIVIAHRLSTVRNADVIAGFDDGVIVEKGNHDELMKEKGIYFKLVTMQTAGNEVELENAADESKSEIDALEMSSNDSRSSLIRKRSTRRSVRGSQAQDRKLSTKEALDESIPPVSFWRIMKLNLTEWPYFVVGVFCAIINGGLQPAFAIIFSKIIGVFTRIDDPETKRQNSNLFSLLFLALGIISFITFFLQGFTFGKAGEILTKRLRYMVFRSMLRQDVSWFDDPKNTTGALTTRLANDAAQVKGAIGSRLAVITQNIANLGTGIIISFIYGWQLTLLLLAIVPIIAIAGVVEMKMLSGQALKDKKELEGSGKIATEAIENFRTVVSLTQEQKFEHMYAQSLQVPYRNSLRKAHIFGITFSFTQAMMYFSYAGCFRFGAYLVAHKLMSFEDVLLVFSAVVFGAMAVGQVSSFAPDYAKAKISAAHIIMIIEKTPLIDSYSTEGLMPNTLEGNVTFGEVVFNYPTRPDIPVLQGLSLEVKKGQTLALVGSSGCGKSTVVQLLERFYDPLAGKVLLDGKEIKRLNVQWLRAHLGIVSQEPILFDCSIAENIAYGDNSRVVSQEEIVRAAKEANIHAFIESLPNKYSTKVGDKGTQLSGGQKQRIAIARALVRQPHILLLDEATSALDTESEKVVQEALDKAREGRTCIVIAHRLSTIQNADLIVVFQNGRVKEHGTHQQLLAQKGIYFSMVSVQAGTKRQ

[11] = tested on: direct-contact triculture of astrocytes, pericytes and hCMEC/D3 cells; assay: Permeability across direct-contact triculture BBB model; conditions: hCMEC/D3 monoculture as control, n=5, FIG. 9
[12] = tested on: direct contact coculture of human astrocytes and hCMEC/D3 cells; assay: Apparent permeability across direct contact coculture on Transwell; conditions: for apparent permeability, reproducibility: different passage number

For `O=S(=O)(O)CCN1CCN(CCO)CC1` [HEPES, 4-(2-hydroxyethyl)-1-piperazineethanesulfonic acid], the “change in cell viability (MTT)” value ([1]; 25 mM HEPES in comparison to 10 mM HEPES control) was −8.2±2.0% and the “change in cell viability (MTT)” value ([1]; 50 mM HEPES compared to 10 mM HEPES control) was −28.4±2.6%.

With `OC[C@@H](O)[C@@H](O)[C@H](O)[C@H](O)CO` [Mannitol] the effective permeability ([2]; co-culture of astrocytes and pericytes versus astrocytes monoculture, FIG. 8B, n=6) was “lower in comparison to monoculture of astrocytes”, the apparent permeability ([2]; co-culture versus astrocytes or pericytes alone, FIG. 8A) was “lower in the co-culture of astrocytes and pericytes” and the “decrease in permeability, mono- versus tri-culture” value ([3]; human, 90 min, 0.25 μCi/mL) was 1.5 fold. The Papp A→B at 90 min, 0.25 μCi/mL ([4]; Papp) was 15.2 ± 0.69 ×10⁻⁶ cm/s and the Papp A→B at 90 min, 0.25 μCi/mL ([4]; apparent permeability) was 15.2 ± 0.7 ×10⁻⁶ cm/s.

For `CC(C)NCC(O)COc1cccc2ccccc12` (stereo not drawn) [Propranolol], the Papp A→B at 90 min, 0.25 μCi/mL [5] was 19.1 ± 1.9 ×10⁻⁶ cm/s, the Papp A→B at 90 min, 0.25 μCi/mL [6] was 45.8 ± 4.1 ×10⁻⁶ cm/s and the “fold lower permeability in hCMEC/D3 and direct contact coculture than in astrocyte monoculture” value [7] was ~3 fold. The “transcellular permeability across the BBB-triculture relative to L-histidine” value [3] was “significantly slower than L-histidine” and the Papp A→B at 90 min, 0.25 μCi/mL ([4]; apparent permeability) was 16.1 ± 0.4 ×10⁻⁶ cm/s.

In the case of `Cc1ncc(C[n+]2csc(CCO)c2C)c(N)n1` [Thiamine], the “transcellular permeability across the BBB-triculture relative to L-histidine” value [3] is reported as “significantly slower than L-histidine”.

For `NC(N)=O` [Urea], the apparent permeability [8] was 2.96±0.11 ×10^−5 cm/s, the Papp [9] was 2.43 ± 0.155 ×10^−5 cm/s and the apparent permeability [9] was 2.43±0.15 ×10^−5 cm/s.

In the case of `COc1cc2c(cc1OC)CN(CCc1ccc(NC(=O)c3cccc4c(=O)c5cccc(OC)c5[nH]c34)cc1)CC2` [elacridar], the “inhibition of Pgp function (digoxin)” value [10] is reported as “more difficult to inhibit Pgp function in the triculture”.

For `CC(=O)O[C@H]1C(=O)[C@@]2(C)[C@H]([C@H](OC(=O)c3ccccc3)[C@]3(O)C[C@H](OC(=O)[C@H](O)[C@@H](NC(=O)c4ccccc4)c4ccccc4)C(C)=C1C3(C)C)[C@]1(OC(C)=O)CO[C@@H]1C[C@@H]2O` [paclitaxel], the “transcellular permeability across the BBB-triculture relative to L-histidine” value [3] was “significantly slower than L-histidine”.

In the case of Inulin, the apparent permeability ([8]; hCMEC/D3 monoculture, n=3) is reported as 8.46±0.02 ×10^−6 cm/s, the “decrease in permeability, mono- versus tri-culture” value [11] is reported as 8 fold and the Papp ([12]; Table 4, values match the direct contact coculture) is reported as 0.754 ± 0.030 ×10^−5 cm/s. The apparent permeability ([12]; direct contact coculture, n=3) was 7.55±0.3 ×10^−6 cm/s, the “apparent permeability, reproducibility” value ([12]; first additional independent experiment) was 7.51±0.01 ×10^−6 cm/s and the “apparent permeability, reproducibility” value ([12]; second additional independent experiment) was 7.94±0.03 ×10^−6 cm/s.
